From paper PMC6493465 (Oncotarget, 2019) come the findings set out here.

Structures are written as SMILES. Read-outs that look alike come from different tables or passages of the source.

For series [1], the system named is MCL-1, BCL2L10, survivin and cPARP in MV4-11 cells. The series can be described thus: Western blot analysis of anti-apoptotic protein expression, MV4-11. The series is classed as cell-based, human. As to conditions: MV4-11, 24-hour treatment; gilteritinib 10 nM, AraC 1000 nM, DNR 6 nM, IDR 1 nM and 2 nM, Aza 1000 nM. How it is done: (§1) Cell lysates were prepared in radioimmunoprecipitation assay buffer (Thermo Fisher Scientific Inc., Rockford, IL) supplemented with phosphatase (Thermo Fisher Scientific Inc.) and protease inhibitors (Merck, Billerica, MA), electrophoresed on 4%–15% gels, and subsequently transferred to polyvinylidene difluoride membranes. The membranes were blocked using Blocking One (Nacalai Tesque Inc., Kyoto, Japan) for 1 hour and then incubated overnight with primary antibodies to MCL-1, BCL210, cPARP (all from Cell Signaling Technology, Danvers, MA, USA), survivin (R&D Systems, Inc., Minneapolis, MN), and α-actin (MilliporeSigma, Burlington, MA). The membranes were washed with TBS Tween-20 (TBS-T) buffer and incubated with appropriate horseradish peroxidase-linked secondary antibodies (Cell Signaling Technology Japan K.K.) for 1 hour at room temperature. After washing the membranes in TBS-T buffer, enhanced chemiluminescence Western Blotting Detection Reagent ECL-prime (GE Healthcare, Fairfield, CT) was applied. Signals were detected with a charge-coupled device camera (ImageQuant LAS4000; GE Healthcare); signal intensity was quantified using ImageQuant™ TL software (GE Healthcare).
In general terms: A western blot detects proteins with antibodies after separation by electrophoresis.

The nature of series [2]: Pharmacokinetic assays (plasma and tumor) in nude mice xenografted with MV4-11 cells. The series is classed as in vivo, mouse. As to conditions: for AUC24 ratio: combination versus the other group; for Cmax / Tmax / AUC: nude, mouse; for AUC: read-out: AUC24. How it is done: Plasma samples were prepared by centrifugation (n=3 per group; one sample in the combination group was excluded due to improper handling). […] These assays were conducted by Astellas Research Technologies Co., Ltd. under the guidance of Analysis & Pharmacokinetics Research Laboratories, Astellas Pharma, Inc., or by Nemoto Science Co., Ltd. (Ibaraki, Japan). […] Body weight and tumor assessments obtained on with MV4-11 cells received one of the following Day −1 were designated as Day 0 (baseline) measurements. combination treatments: 1. […] The percent tumor regression was calculated using the formula: […]

The test system of series [3] is MOLM-13 cells. The experiment in a line: Annexin-V staining (apoptosis), MOLM-13. The class given is cell-based, human. Conditions: 48 hours; for percentage of annexin V-positive cells: control 4.1%. The protocol: MV4-11 cells were seeded in 12-well plates at a concentration of 2 × 10^5 cells/well and cultured overnight. […] MOLM-13 cells were seeded in 12-well plates at a concentration of 1 × 10^5 cells/well and cultured overnight.
Cells were harvested and incubated with Guava® Nexin Reagent (Merck Millipore Corporation, Billerica, MA). Annexin-V-positive cells were assessed using a Guava® PCA microcytometer (Merck Millipore Corporation); the percentage of annexin-V-positive cells (2000 cells per sample) was analyzed using CytoSoft™ software (Merck Millipore Corporation). Mean percentages of annexin-V-positive cells were derived from three independent experiments.

Series [4] concerns MCL-1, BCL2L10, survivin and cPARP in MOLM-13 cells. The series can be described thus: Western blot analysis of anti-apoptotic protein expression, MOLM-13. The class given is cell-based, human. Conditions: MOLM-13, 24-hour treatment; gilteritinib 30 nM, AraC 100 nM, IDR 3 nM, Aza 1000 nM. The protocol: as §1
The mark [5] stands for this setting: plasma, iv, 3 mg/kg, azacitidine in plasma, gilteritinib 3, azacitidine 3 mg/kg.
[6] abbreviates: plasma, iv, azacitidine in plasma, doses gilteritinib 3, azacitidine 0 mg/kg.
Where [7] appears, read: tumor, iv, 3 mg/kg, azacitidine in tumor, gilteritinib 3, azacitidine 3 mg/kg.
Where [8] appears, read: plasma, po, 3 mg/kg, gilteritinib in plasma, gilteritinib 3 mg/kg, AraC 0, IDR 0.
Setting [9] is: plasma, po, 3 mg/kg, gilteritinib in plasma, gilteritinib 3, AraC 50, IDR 0.5 mg/kg.
The mark [10] stands for this setting: plasma, po, 3 mg/kg, gilteritinib in plasma, gilteritinib 3, azacitidine 0 mg/kg.
Where [11] appears, read: plasma, po, 3 mg/kg, gilteritinib in plasma, gilteritinib 3, azacitidine 3 mg/kg.
[12] abbreviates: tumor, po, 3 mg/kg, gilteritinib in tumor, gilteritinib 3 mg/kg, AraC 0, IDR 0.
The mark [13] stands for this setting: tumor, po, 3 mg/kg, gilteritinib in tumor, gilteritinib 3, AraC 50, IDR 0.5 mg/kg.
Where [14] appears, read: tumor, po, 3 mg/kg, gilteritinib in tumor, gilteritinib 3, azacitidine 0 mg/kg.
The mark [15] stands for this setting: tumor, po, 3 mg/kg, gilteritinib in tumor, gilteritinib 3, azacitidine 3 mg/kg.

In general, Cmax refers to the maximum level reached in the sampled fluid or tissue. Broadly, the Tmax is the time from dosing to the highest level. `Nc1ncn([C@@H]2O[C@H](CO)[C@@H](O)[C@H]2O)c(=O)n1` [Aza, Azacitidine]: the “expression of MCL-1, BCL2L10, and survivin” value in series [1] is “no change”; in series [4], “little effect”. Moreover, the AUC24 ratio in series [2] (azacitidine in plasma) was determined as 0.87; in series [2] (azacitidine in tumor), 1.17. The AUC24 is on record as 323 ng·h/g in series [2] (azacitidine in tumor, doses gilteritinib 3, azacitidine 0 mg/kg) and 378 ng·h/g in series [2] (azacitidine in tumor, gilteritinib 3, azacitidine 3 mg/kg). Moreover, the Cmax was determined as 3440 ng/mL in series [2] (setting [5]); 3390 ng/mL in series [2] (setting [6]); 96.8 ng/g in series [2] (setting [7]); 61.3 ng/g in series [2] (tumor, iv, azacitidine in tumor). In addition, the Tmax in series [2] (setting [5]) was 0.08 h; in series [2] (setting [6]) it was 0.08 h; in series [2] (setting [7]), 0.5 h; in series [2] (tumor, iv, azacitidine in tumor, doses gilteritinib 3, azacitidine 0 mg/kg), 0.08 h. The results for the AUC in series [2] (setting [5]) and in series [2] (setting [6]) were 1610 ng·h/mL and 1850 ng·h/mL, respectively. Further, the “mean percentage of annexin V-positive cells” value in series [3] (single agent: IDR 3 nM, AraC 100 nM or Aza 1000 nM) turned out to be 21.9%.

`CCc1nc(C(N)=O)c(Nc2ccc(N3CCC(N4CCN(C)CC4)CC3)c(OC)c2)nc1NC1CCOCC1` [Gilteritinib]: the results for the “expression of MCL-1, BCL2L10, and survivin” value in series [1] and in series [4] were “inhibited the expression” and “strongly inhibited”, respectively. Further, the “difference in PK profile alone versus in combination” value in series [2] (alone or in combination with AraC/IDR or Aza) is recorded as “no discernable difference”. Besides, the AUC24 in series [2] (gilteritinib in tumor, gilteritinib 3 mg/kg, AraC 0, IDR 0) is 6430.2 ng·h/g; in series [2] (gilteritinib in tumor, gilteritinib 3, AraC 50, IDR 0.5 mg/kg), 6639.0 ng·h/g; in series [2] (gilteritinib in tumor, gilteritinib 3, azacitidine 0 mg/kg), 3821 ng·h/g; in series [2] (gilteritinib in tumor, gilteritinib 3, azacitidine 3 mg/kg), 3964 ng·h/g. Further, the Cmax in series [2] (setting [8]) was determined as 21.3 ng/mL; in series [2] (setting [9]), 22.3 ng/mL; in series [2] (setting [10]), 11 ng/mL; in series [2] (setting [11]), 10.1 ng/mL; in series [2] (setting [12]), 677 ng/g; in series [2] (setting [13]), 437 ng/g. In addition, the Cmax is 387 ng/g in series [2] (setting [14]) and 349 ng/g in series [2] (setting [15]). The Tmax in series [2] (setting [8]) is 2 h; in series [2] (setting [9]), 2 h; in series [2] (setting [10]) it was 2 h; in series [2] (setting [11]), 2 h; in series [2] (setting [12]), 2 h; in series [2] (setting [13]), 4 h. For the same compound, the Tmax in series [2] (setting [14]) and in series [2] (setting [15]) was 4 h in each case. In addition, the AUC worked out at 156 ng·h/mL in series [2] (setting [8]), 199 ng·h/mL in series [2] (setting [9]), 65.8 ng·h/mL in series [2] (setting [10]) and 69.1 ng·h/mL in series [2] (setting [11]). For the same compound, in series [2] (plasma, alone or in combination with AraC/IDR or Aza), the “time after administration at which plasma concentrations peaked” value was 2 h. The “concentration in tumor fraction versus plasma fraction” value in series [2] (xenografted mice) was “higher in the tumor fraction”. Moreover, the “percentage of annexin V-positive cells” value in series [3] (gilteritinib alone 30 nM) is 32.0%; in series [3] (gilteritinib alone 100 nM), 52.4%.
